# What was measured:
# Type in all cases: in vivo
# [1] = system: wild oat (Avena fatua L.); test: Test Example 3: soil treatment, wild oat, visual growth inhibition rate; conditions: soil treatment the day after sowing, 14th day after treatment
# Source text: When the herbicidal activity in a case where two active ingredients are combined, is larger than the simple sum of the respective herbicidal activities of the two active ingredients (the expected activity), it is called a synergistic effect. The activity expected by the combination of two active ingredients can be calculated as follows (Colby S. R., “Weed”, vol. 15, p. 20-22, 1967). […] In a case where three active ingredients are combined, the activity can be similarly calculated as follows. […] On the 22nd day after treatment, the state of growth of the common cocklebur was visually observed to determine the growth inhibition rate in accordance with the following evaluation standard. The growth inhibition rate (%) (measured value) and the growth inhibition rate (%) (calculated value) calculated by the Colby's formula are shown in Table 1. […] On the 14th day after treatment, the state of growth of the wild oat was visually observed to determine the growth inhibition rate.
# [2] = system: common cocklebur (Xanthium strumarium L.); test: Test Example 1: foliar treatment of common cocklebur in pots, visual growth inhibition rate; conditions: foliar treatment at 4.3 to 4.8-leaf stage, 22nd day after treatment
# Source text: When the herbicidal activity in a case where two active ingredients are combined, is larger than the simple sum of the respective herbicidal activities of the two active ingredients (the expected activity), it is called a synergistic effect. The activity expected by the combination of two active ingredients can be calculated as follows (Colby S. R., “Weed”, vol. 15, p. 20-22, 1967). E1=α+β-(α×β÷100) In a case where three active ingredients are combined, the activity can be similarly calculated as follows. […] Upland field soil was put into a 1/1,000,000 ha pot, and seeds of common cocklebur (Xanthium strumarium L.) were sown. […] Dual Gold, manufactured by Syngenta Crop Protection AG), SC agent containing terbuthylazine as an active ingredient (tradename: Click, manufactured by BASF), SC agent containing mesotrione as an active ingredient (tradename: Callisto, manufactured by Syngenta Crop Protection AG) and WG agent containing prosulfuron as an active ingredient (tradename: Peak, manufactured by Syngenta Crop Protection AG) were diluted with water in an amount corresponding to 1,000 Uha, and applied for foliar treatment by a small sprayer. On the 22nd day after treatment, the state of growth of the common cocklebur was visually observed to determine the growth inhibition rate in accordance with the following evaluation standard. The growth inhibition rate (%) (measured value) and the growth inhibition rate (%) (calculated value) calculated by the Colby's formula are shown in Table 1.
# [3] = system: summergrass (Digitaria ciliaris (Retz.) Koel); test: Test Example 5: foliar treatment of summergrass in 7 to 9-leaf stage, visual growth inhibition rate; conditions: foliar treatment at 7 to 9-leaf stage, 14th day after treatment
# Source text: When the herbicidal activity in a case where two active ingredients are combined, is larger than the simple sum of the respective herbicidal activities of the two active ingredients (the expected activity), it is called a synergistic effect. The activity expected by the combination of two active ingredients can be calculated as follows (Colby S. R., “Weed”, vol. 15, p. 20-22, 1967). E1=α+β-(α×β÷100) On the 22nd day after treatment, the state of growth of the common cocklebur was visually observed to determine the growth inhibition rate in accordance with the following evaluation standard. The growth inhibition rate (%) (measured value) and the growth inhibition rate (%) (calculated value) calculated by the Colby's formula are shown in Table 1. […] Upland field soil was put into a 1/1,000,000 ha pot, and seeds of summergrass (Digitaria ciliaris (Retz.) Koel) were sown. When the summergrass reached 7 to 9-leaf stage, predetermined amounts of […] Dual Gold (tradename) were diluted with water (corresponding to 300 L/ha) and applied for foliar treatment by a small sprayer. On the 14th day after treatment, the state of growth of the summergrass was visually observed to determine the growth inhibition rate.
Compound,"Growth inhibition rate (%) of wild oat, Measured value ([1]; dose 250 g/ha) [%]","Growth inhibition rate (%) of wild oat, Measured value ([1]; dose 2000 g/ha) [%]","Growth inhibition rate (%) of common cocklebur, Measured value ([2]; dose 1000 g/ha) [%]","Growth inhibition rate (%) of summergrass, Measured value ([3]; dose 500 g/ha) [%]","Growth inhibition rate (%) of summergrass, Measured value ([3]; dose 2000 g/ha) [%]","inhibition at 10 g/ha ([1]; Avena fatua, dose 10 g/ha, read-out: Growth inhibition rate (%) of wild oat, Measured value) [%]","inhibition at 100 g/ha ([1]; Avena fatua, dose 100 g/ha, read-out: Growth inhibition rate (%) of wild oat, Measured value) [%]","inhibition at 30 g/ha ([2]; Xanthium strumarium, dose 30 g/ha, read-out: Growth inhibition rate (%) of common cocklebur, Measured value) [%]","inhibition at 15 g/ha ([3]; Digitaria ciliaris, dose 15 g/ha, read-out: Growth inhibition rate (%) of summergrass, Measured value) [%]"
"a mixture of (aRS,1S)-2-chloro-6′-ethyl-N-(2-methoxy-1-methylethyl)aceto-o-toluidide (80 to 100%) and (aRS,1R)-2-chloro-6′-ethyl-N-(2-methoxy-1-methylethyl)aceto-o-toluidide (20 to 0%) [S-metolachlor]",15,60,0,0,0,,,,
"COc1cc(OC)nc(NC(=O)NS(=O)(=O)c2ncccc2C(=O)N(C)C)n1 [Nicosulfuron, 2-(4,6-dimethoxypyrimidin-2-ylcarbamoylsulfamoyl)-N,N-dimethylnicotinamide]",,,,,,10,40,0,53

# Source: patent publication US10092002B2, “Herbicidal composition comprising nicosulfuron or its salt and S -metolachlor or its salt” (ISHIHARA SANGYO KAISHA, LTD., priority 2011, dated 2018)
